Patent US20100168102A9, “Amide Derivatives as Kinase Inhibitors” (Devgen NV, priority 2005, published 2010)

What was measured:
human ROCKα/ROCKII mix = target: T1, human ROCKα/ROCKII mix (Homo sapiens, UniProt O75116); experiment: Biochemical assay for ROCK (fluorescence polarization, ROCK IMAP Kit)
T1 construct: purchased Upstate Biotechnology 14-451

PKC epsilon = target: T2, PKC epsilon (Homo sapiens, UniProt Q02156); experiment: Biochemical assay for PKC epsilon (fluorescence polarization, Protein Kinase C Assay Kit, Red); conditions: read-out: IC50 μM PKCε
T2 construct: purchased Invitrogen P2282
T2 sequence (Q02156 1-737): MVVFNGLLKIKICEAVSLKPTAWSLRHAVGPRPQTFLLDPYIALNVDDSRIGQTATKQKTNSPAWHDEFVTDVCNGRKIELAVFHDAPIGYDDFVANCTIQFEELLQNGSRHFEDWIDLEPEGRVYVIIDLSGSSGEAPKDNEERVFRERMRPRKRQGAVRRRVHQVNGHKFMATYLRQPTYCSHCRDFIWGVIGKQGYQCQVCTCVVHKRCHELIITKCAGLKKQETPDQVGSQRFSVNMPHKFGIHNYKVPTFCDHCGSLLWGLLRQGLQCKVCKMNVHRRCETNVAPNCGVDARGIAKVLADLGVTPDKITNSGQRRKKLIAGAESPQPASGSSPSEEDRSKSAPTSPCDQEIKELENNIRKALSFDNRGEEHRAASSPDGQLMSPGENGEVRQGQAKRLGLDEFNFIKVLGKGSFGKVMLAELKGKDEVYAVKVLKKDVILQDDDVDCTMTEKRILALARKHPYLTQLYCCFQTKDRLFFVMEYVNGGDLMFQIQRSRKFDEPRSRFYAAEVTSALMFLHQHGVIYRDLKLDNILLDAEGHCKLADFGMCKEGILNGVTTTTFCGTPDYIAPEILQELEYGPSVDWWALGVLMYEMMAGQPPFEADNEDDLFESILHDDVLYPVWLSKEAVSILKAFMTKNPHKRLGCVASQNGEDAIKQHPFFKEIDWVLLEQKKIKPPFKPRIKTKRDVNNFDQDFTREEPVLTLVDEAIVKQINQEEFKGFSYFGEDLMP
Procedure, shortened: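 Read-out was fluorescence-polarization competition between phosphorylated substrate and a rhodamine PKC tracer for an anti-phosphoserine antibody, added with EDTA stop after an 80 min room-temperature kinase reaction with ATP and protein substrate (Mg2+/Ca2+ buffer). Enzyme (10 ng/ml final) was preincubated with compound for 30 min.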

T1 sequence (O75116 11-552 limits assumed): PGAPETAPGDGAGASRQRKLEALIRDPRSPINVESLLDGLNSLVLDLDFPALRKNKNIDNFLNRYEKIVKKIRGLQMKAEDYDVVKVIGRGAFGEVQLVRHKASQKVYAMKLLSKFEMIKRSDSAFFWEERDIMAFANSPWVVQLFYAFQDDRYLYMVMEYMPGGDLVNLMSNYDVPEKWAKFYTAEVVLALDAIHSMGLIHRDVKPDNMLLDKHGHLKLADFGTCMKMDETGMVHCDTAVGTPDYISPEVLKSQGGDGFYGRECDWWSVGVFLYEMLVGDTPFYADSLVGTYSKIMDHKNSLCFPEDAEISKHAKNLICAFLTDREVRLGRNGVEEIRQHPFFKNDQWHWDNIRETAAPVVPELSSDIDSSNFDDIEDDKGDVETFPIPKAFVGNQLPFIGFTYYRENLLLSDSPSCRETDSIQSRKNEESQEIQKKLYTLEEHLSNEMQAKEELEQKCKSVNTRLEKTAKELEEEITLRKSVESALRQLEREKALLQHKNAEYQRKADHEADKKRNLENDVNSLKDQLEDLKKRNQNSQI

Row | IC50 (human ROCKα/ROCKII mix) [µM] | IC50 (PKC epsilon) [µM] | SMILES
1 | 0.05 to 0.5 | 0.5 to 5 | NC(c1ccc(C(=O)Nc2ccncc2)cc1)C1CCCN1C(=O)Cc1ccccc1 (stereo not shown) [Compound 521, 4-[Amino-(1-phenylacetyl-pyrrolidin-2-yl)-methyl]-N-pyridin-4-yl-benzamide]
2 | 0.5 to 5 | 5 to 50 | Cc1cccc(CC(=O)N2CCCC2C(N)c2ccc(C(=O)Nc3ccncc3)cc2)c1 (stereo not shown) [Compound 524, 4-{Amino-[1-(2-m-tolyl-acetyl)-pyrrolidin-2-yl]-methyl}-N-pyridin-4-yl-benzamide]
3 | 0.5 to 5 | 0.5 to 5 | Cc1ccc(CC(=O)N2CCCC2C(N)c2ccc(C(=O)Nc3ccncc3)cc2)cc1 (stereo not shown) [Compound 525, 4-{Amino-[1-(2-p-tolyl-acetyl)-pyrrolidin-2-yl]-methyl}-N-pyridin-4-yl-benzamide]
4 | 0.5 to 5 | 5 to 50 | COc1ccccc1CC(=O)N1CCCC1C(N)c1ccc(C(=O)Nc2ccncc2)cc1 (stereo not shown) [Compound 526, 4-(Amino-{1-[2-(2-methoxy-phenyl)-acetyl]-pyrrolidin-2-yl]-methyl}-N-pyridin-4-yl-benzamide]
5 | 0.5 to 5 | 0.5 to 5 | COc1cccc(CC(=O)N2CCCC2C(N)c2ccc(C(=O)Nc3ccncc3)cc2)c1 (stereo not shown) [Compound 527, 4-(Amino-{1-[2-(3-methoxy-phenyl)-acetyl]-pyrrolidin-2-yl}-methyl)-N-pyridin-4-yl-benzamide]
6 | 0.05 to 0.5 | 0.5 to 5 | COc1ccc(CC(=O)N2CCCC2C(N)c2ccc(C(=O)Nc3ccncc3)cc2)cc1 (stereo not shown) [Compound 528, 4-(Amino-{1-[2-(4-methoxy-phenyl)-acetyl]-pyrrolidin-2-yl}-methyl)-N-pyridin-4-yl-benzamide]
7 | 0.5 to 5 | 0.5 to 5 | COc1ccc(C2(C(=O)N3CCCC3C(N)c3ccc(C(=O)Nc4ccncc4)cc3)CC2)cc1 (stereo not shown) [Compound 529, 4-(Amino-{1-[1-(4-methoxy-phenyl)-cyclopropanecarbonyl]-pyrrolidin-2-yl}-methyl)-N-pyridin-4-yl-benzamide]
8 | 0.5 to 5 | 0.5 to 5 | COc1ccc(C2(C(=O)N3CCCC3C(N)c3ccc(C(=O)Nc4ccncc4)cc3)CCCC2)cc1 (stereo not shown) [Compound 530, 4-(Amino-{1-[1-(4-methoxy-phenyl)-cyclopentanecarbonyl]-pyrrolidin-2-yl}-methyl)-N-pyridin-4-yl-benzamide]
9 | 0.5 to 5 | 0.5 to 5 | COc1ccc(CC(=O)N2CCCC2C(N)c2ccc(C(=O)Nc3ccncc3)cc2)c(OC)c1 (stereo not shown) [Compound 531, 4-(Amino-{1-[2-(2,4-dimethoxy-phenyl)-acetyl]-pyrrolidin-2-yl}-methyl)-N-pyridin-4-yl-benzamide]
10 | 0.5 to 5 | 5 to 50 | COc1cc(CC(=O)N2CCCC2C(N)c2ccc(C(=O)Nc3ccncc3)cc2)cc(OC)c1OC (stereo not shown) [Compound 532, 4-(Amino-{1-[2-(3,4,5-trimethoxy-phenyl)-acetyl]-pyrrolidin-2-yl}-methyl)-N-pyridin-4-yl-benzamide]
11 | 0.5 to 5 | 0.5 to 5 | NC(c1ccc(C(=O)Nc2ccncc2)cc1)C1CCCN1C(=O)Cc1ccc2ccccc2c1 (stereo not shown) [Compound 535, 4-{Amino-[1-(2-naphthalen-2-yl-acetyl)-pyrrolidin-2-yl]-methyl}-N-pyridin-4-yl-benzamide]
12 | 0.5 to 5 | 0.5 to 5 | NC(c1ccc(C(=O)Nc2ccncc2)cc1)C1CCCN1C(=O)Cc1cccc2ccccc12 (stereo not shown) [Compound 536, 4-{Amino-[1-(2-naphthalen-1-yl-acetyl)-pyrrolidin-2-yl]-methyl}-N-pyridin-4-yl-benzamide]
13 | 0.5 to 5 | 0.5 to 5 | NC(c1ccc(C(=O)Nc2ccncc2)cc1)C1CCCN1C(=O)Cc1ccc(-c2ccccc2)cc1 (stereo not shown) [Compound 537, 4-{Amino-[1-(2-biphenyl-4-yl-acetyl)-pyrrolidin-2-yl]-methyl}-N-pyridin-4-yl-benzamide]
14 | 0.5 to 5 | 5 to 50 | NC(c1ccc(C(=O)Nc2ccncc2)cc1)C1CCCN1C(=O)Cc1ccc(O)c([N+](=O)[O-])c1 (stereo not shown) [Compound 540, 4-(Amino-{1-[2-(4-hydroxy-3-nitro-phenyl)-acetyl]-pyrrolidin-2-yl}-methyl)-N-pyridin-4-yl-benzamide]
15 | 0.5 to 5 | 5 to 50 | NC(c1ccc(C(=O)Nc2ccncc2)cc1)C1CCCN1C(=O)Cc1cncc(Br)c1 (stereo not shown) [Compound 543, 4-(Amino-{1-[2-(5-bromo-pyridin-3-yl)-acetyl]-pyrrolidin-2-yl}-methyl)-N-pyridin-4-yl-benzamide]
16 | 0.5 to 5 | 0.5 to 5 | NC(c1ccc(C(=O)Nc2ccncc2)cc1)C1CCCN1C(=O)Cc1c[nH]c2ccccc12 (stereo not shown) [Compound 544, 4-{Amino-[1-(2-1H-indol-3-yl-acetyl)-pyrrolidin-2-yl]-methyl}-N-pyridin-4-yl-benzamide]
17 | 0.5 to 5 | 0.5 to 5 | NC(c1ccc(C(=O)Nc2ccncc2)cc1)C1CCCN1C(=O)Cc1csc(-c2ccccc2)n1 (stereo not shown) [Compound 546, 4-(Amino-{1-[2-(2-phenyl-thiazol-4-yl)-acetyl]-pyrrolidin-2-yl}-methyl)-N-pyridin-4-yl-benzamide]
18 | 0.05 to 0.5 | 5 to 50 | NC(c1ccc(C(=O)Nc2ccncc2)cc1)C1CCCN1C(=O)Cc1cccs1 (stereo not shown) [Compound 547, 4-{Amino-[1-(2-thiophen-2-yl-acetyl)-pyrrolidin-2-yl]-methyl}-N-pyridin-4-yl-benzamide]
19 | 0.5 to 5 | 5 to 50 | NC(c1ccc(C(=O)Nc2ccncc2)cc1)C1CCCN1C(=O)C1(c2cccs2)CC1 (stereo not shown) [Compound 549, 4-{Amino-[1-(1-thiophen-2-yl-cyclopropanecarbonyl)-pyrrolidin-2-yl]-methyl}-N-pyridin-4-yl-benzamide]
20 | 0.5 to 5 | 5 to 50 | NC(c1ccc(C(=O)Nc2ccncc2)cc1)C1CCCN1C(=O)C1(c2ccsc2)CC1 (stereo not shown) [Compound 551, 4-{Amino-[1-(1-thiophen-3-yl-cyclopropanecarbonyl)-pyrrolidin-2-yl]-methyl}-N-pyridin-4-yl-benzamide]
21 | 0.05 to 0.5 | 5 to 50 | NC(c1ccc(C(=O)Nc2ccncc2)cc1)C1CCCN1C(=O)C1Cc2ccccc21 (stereo not shown) [Compound 552, 4-{Amino-[1-(bicyclo[4.2.0]octa-1,3,5-triene-7-carbonyl)-pyrrolidin-2-yl]-methyl}-N-pyridin-4-yl-benzamide]
22 | 0.5 to 5 | 0.5 to 5 | NC(c1ccc(C(=O)Nc2ccncc2)cc1)C1CCCN1C(=O)C(c1ccccc1)C1CCCCC1 (stereo not shown) [Compound 555, 4-{Amino-[1-(2-cyclohexyl-2-phenyl-acetyl)-pyrrolidin-2-yl]-methyl}-N-pyridin-4-yl-benzamide]
23 | 0.5 to 5 | 5 to 50 | NC(c1ccc(C(=O)Nc2ccncc2)cc1)C1CCCN1C(=O)C(c1ccccc1)C1CCCC1 (stereo not shown) [Compound 556, 4-{Amino-[1-(2-cyclopentyl-2-phenyl-acetyl)-pyrrolidin-2-yl]-methyl}-N-pyridin-4-yl-benzamide]
24 | 0.05 to 0.5 | 0.5 to 5 | NC(c1ccc(C(=O)Nc2ccncc2)cc1)C1CCCN1C(=O)Cc1cccc(Br)c1 (stereo not shown) [Compound 557, 4-(Amino-{1-[2-(3-bromo-phenyl)-acetyl]-pyrrolidin-2-yl}-methyl)-N-pyridin-4-yl-benzamide]
25 | 0.05 to 0.5 | 0.5 to 5 | NC(c1ccc(C(=O)Nc2ccncc2)cc1)C1CCCN1C(=O)Cc1ccc(Br)cc1 (stereo not shown) [Compound 558, 4-(Amino-{1-[2-(4-bromo-phenyl)-acetyl]-pyrrolidin-2-yl}-methyl)-N-pyridin-4-yl-benzamide]
26 | 0.5 to 5 | 5 to 50 | NC(c1ccc(C(=O)Nc2ccncc2)cc1)C1CCCN1C(=O)Cc1ccc(C(F)(F)F)cc1 (stereo not shown) [Compound 559, 4-(Amino-{1-[2-(4-trifluoromethyl-phenyl)-acetyl]-pyrrolidin-2-yl}-methyl)-N-pyridin-4-yl-benzamide]
27 | 0.5 to 5 | 5 to 50 | NC(c1ccc(C(=O)Nc2ccncc2)cc1)C1CCCN1C(=O)Cc1cccc(Cl)c1 (stereo not shown) [Compound 560, 4-(Amino-{1-[2-(3-chloro-phenyl)-acetyl]-pyrrolidin-2-yl}-methyl)-N-pyridin-4-yl-benzamide]
28 | 0.5 to 5 | 0.5 to 5 | NC(c1ccc(C(=O)Nc2ccncc2)cc1)C1CCCN1C(=O)Cc1ccc(Cl)cc1 (stereo not shown) [Compound 561, 4-(Amino-{1-[2-(4-chloro-phenyl)-acetyl]-pyrrolidin-2-yl}-methyl)-N-pyridin-4-yl-benzamide]
29 | 0.5 to 5 | 0.5 to 5 | CC(C)C(C(=O)N1CCCC1C(N)c1ccc(C(=O)Nc2ccncc2)cc1)c1ccc(Cl)cc1 (stereo not shown) [Compound 562, 4-(Amino-{1-[2-(4-chloro-phenyl)-3-methyl-butyryl]-pyrrolidin-2-yl}-methyl)-N-pyridin-4-yl-benzamide]
